Values after ≈ are worked out from the molar mass of the structure shown.
Assay: Solubility of the dye in water
Format: physicochemical
Source text: Further, the dye component used in the Example, which has a solubility in water of 100 g/L, is excellent for ink-jet recording and can produce a high concentration of ink composition.

solubility in pure water (ion exchanged water) (25° C., listed as the dye component used in the Example): 100 mg/mL (≈ 131 mM)
solubility (pure water (ion exchanged water), 25 °C, water): ~100 mg/mL (≈ 131 mM)
SMILES: CCC(C)(C)c1ccc(Oc2cc(Nc3ccc(S(=O)(=O)O)cc3)c3c4c(c(C(=O)c5ccccc5)c(=O)[nH]c24)-c2ccccc2C3=O)c(S(=O)(=O)O)c1
